Assay results as given in PubChem BioAssay AID1845197 (Molecular Pharmacology Branch, DTP, NCI, 2023).
Values joined by “and” are separate entries in the source; they are usually repeats but may differ in a detail not shown here. Equal values may be shown once.

Tested on: 349418-098-R tumor spheroid viability
Experiment: Anticancer human tumor 349418-098-R patient-derived lung adenocarcinoma cell line growth inhibition
Settings: spheroids with HUVEC and MSC; for viability, T/C: stronger effect = lower value
Source text: Multicellular complex tumor spheroid response to DNA repair inhibitors in combination with DNA-damaging drugs
This study explores the anticancer activities of DNA-damaging drugs and inhibitors of DNA damage repair, both as single agents and in combinations. Complex tumor spheroids comprised of malignant cells, endothelial cells and mesenchymal stem cells served as an in vitro model for human solid tumors. This model system incorporates physiologically relevant features and patient-derived or established malignant cell lines with clinically relevant genetic alterations from many tumor types. Twenty-six patient-derived or established malignant cell lines were evaluated representing sarcoma, melanoma, small cell lung cancer (SCLC), non-small cell lung cancer (NSCLC), as well as bladder, ovarian and pancreatic cancers. The concentration ranges selected for each drug and investigational agent were based upon clinically achievable concentrations if the clinical Cmax of the agent was known.
Compounds. The drugs and compounds olaparib (NSC753686), talazoparib (NSC767125), berzosertib (NSC777718), elimusertib (NSC800525), nedisertib (NSC802822), VX-984 (NSC792969), AZD-1390 (NSC803789), temozolomide (NSC362856), topotecan (NSC609699), trabectedin (NSC813783), staurosporine (NSC755774), and gemcitabine (NSC613327) were obtained from the National Cancer Institute (NCI) Developmental Therapeutics Program Chemical Repository. The FDA-approved anticancer drug set is available from the Developmental Therapeutics Program at https://dtp.cancer.gov/organization/dscb/obtaining/available_plates.htm. […] The stock solutions were prepared in dimethyl sulfoxide (DMSO, Sigma-Aldrich, St. Louis, MO, cat. D2650) at 400-fold the tested concentration and stored at -70 degrees C. Prior to their use, the stock solutions were diluted in fresh medium and the final DMSO concentration in the assay was 0.25% (v/v). All drugs and investigational agents were tested over a range starting from a high concentration at or near the clinical Cmax and decreasing in half-log increments. If the clinical Cmax for an agent had not been determined, the highest concentration tested was 10 microM.
Cell Lines. The patient-derived cancer cell (PDC) lines: 156681-154-R-J1-PDC, 283228-195-R-J1-PDC, 287954-098-R-J1-PDC, 292921-168-R-J2-PDC, 349418-098-R-PDC, 425362-245-T-J1-PDC, 556581-035-R-J1-PDC, and BL0293-F563-PDC were received from the NCI Patient-Derived Models Repository (PDMR, https://pdmr.cancer.gov). The established cell lines HS-SY-2 (RRID:CVCL_8719), MPNST, and SYO-1 (RRID:CVCL_7146) were obtained from the Sloan Kettering Institute. The alveolar soft parts sarcoma cell line ASPS-1 (RRID:CVCL_S738) was established at the NCI and grown from internal seed stocks. The following established cell lines were purchased from the American Type Culture Collection (ATCC, Manassas, VA): G-401 (ATCC, cat. CRL-1441, RRID:CVCL_0270), SW982 (ATCC, cat. HTB-93, RRID:CVCL_1734), VA-ES-BJ (ATCC, cat. CRL-2138, RRID:CVCL_1785), NCI-H719 (ATCC, cat. CRL-5837, RRID:CVCL_1582), NCI-H196 (ATCC, cat. CRL-5823, RRID:CVCL_1509), NCI-H841 (ATCC, cat. CRL-5845, RRID:CVCL_1595), NCI-H1618 (ATCC, cat. CRL-5879, RRID:CVCL_1480), NCI-H1876 (ATCC, cat. CRL-5902, RRID:CVCL_1503), DMS 114 (ATCC, cat. CRL-2066; RRID:CVCL_1174), NCI-H211 (ATCC, cat. CRL-5824; RRID:CVCL_1529), and SW 1271 (ATCC, cat. CRL-2177, RRID:CVCL_1716). The small cell lung cancer cell line COR-L88 was purchased from Sigma-Aldrich (cat. 92031917-1VL, RRID:CVCL_1141). The non-small cell lung cancer cell lines NCI-H226 (RRID:CVCL_1544) and NCI-H322M (RRID:CVCL_1557) were established at the NCI and grown from internal seed stocks. Pooled donor human umbilical vein endothelial cells (HUVEC, Lonza, cat. CC-2519) and human mesenchymal stem cells (hMSC, Lonza, cat. PT-2501) were purchased from Lonza (Walkersville, MD).
Cell Culture. All cells were maintained in an incubator at 37 degrees C and 5% CO2 with 95% humidity. […]
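Note: spheroids exposed to compound for 7 days before measurement.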
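Throughout, for viability, T/C: percent of vehicle control viability with 100% = DMSO-treated spheroids.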

## [2H]c1nc(C)nc([2H])c1-c1cc(NC[C@@H](C)c2cccc3c(C(=O)NC)ccnc23)ncn1
Compound 0.0316 µM
  viability, T/C: 109% and 102% and 93.6%
Compound 0.1 µM
  viability, T/C: 109% and 103% and 105%
Compound 0.316 µM
  viability, T/C: 106% and 101% and 113%
Compound 1 µM
  viability, T/C: 105% (2×) and 107%
Compound 3.16 µM
  viability, T/C: 114% and 103% (2×)
Compound 10 µM
  viability, T/C: 112% and 102% and 105%
Curve of compound
  IC50: > 10000 nM

## CC1COCCN1c1cc(-c2ccnn2C)c2ccnc(-c3ccn[nH]3)c2n1 (configuration not stated) + COc1cc2c(cc1O)CCNC21CSC2c3c(OC(C)=O)c(C)c4c(c3C(COC1=O)N1C(O)C3Cc5cc(C)c(OC)c(O)c5C(C21)N3C)OCO4
Curve of first compound, second compound 30 pM
  IC50: 63.1 nM
Curve of first compound, second compound 94.9 pM
  IC50: 36.5 nM
Curve of first compound, second compound 0.0003 µM
  IC50: < 31.6 nM
Curve of first compound, second compound 0.000949 µM
  IC50: < 31.6 nM
Curve of first compound, second compound 0.003 µM
  IC50: < 31.6 nM
Second compound 30 pM, first compound 0.0316 µM
  viability, T/C: 88.5%
Second compound 30 pM, first compound 0.1 µM
  viability, T/C: 24.3%
Second compound 30 pM, first compound 0.316 µM
  viability, T/C: 13.4%
Second compound 30 pM, first compound 1 µM
  viability, T/C: 12.1%
Second compound 30 pM, first compound 3.16 µM
  viability, T/C: 12.2%
Second compound 30 pM, first compound 10 µM
  viability, T/C: 11.8%
Second compound 94.9 pM, first compound 0.0316 µM
  viability, T/C: 54.9%
Second compound 94.9 pM, first compound 0.1 µM
  viability, T/C: 16.2%
Second compound 94.9 pM, first compound 0.316 µM
  viability, T/C: 9.93%
Second compound 94.9 pM, first compound 1 µM
  viability, T/C: 10.6%
Second compound 94.9 pM, first compound 3.16 µM
  viability, T/C: 12.4%
Second compound 94.9 pM, first compound 10 µM
  viability, T/C: 10.6%
Second compound 0.0003 µM, first compound 0.0316 µM
  viability, T/C: 12%
Second compound 0.0003 µM, first compound 0.1 µM
  viability, T/C: 4.5%
Second compound 0.0003 µM, first compound 0.316 µM
  viability, T/C: 5.77%
Second compound 0.0003 µM, first compound 1 µM
  viability, T/C: 6.89%
Second compound 0.0003 µM, first compound 3.16 µM
  viability, T/C: 7.2%
Second compound 0.0003 µM, first compound 10 µM
  viability, T/C: 7.37%
Second compound 0.000949 µM, first compound 0.0316 µM
  viability, T/C: 0.38%
Second compound 0.000949 µM, first compound 0.1 µM
  viability, T/C: 0.68%
Second compound 0.000949 µM, first compound 0.316 µM
  viability, T/C: 0.46%
Second compound 0.000949 µM, first compound 1 µM
  viability, T/C: 0.39%
Second compound 0.000949 µM, first compound 3.16 µM
  viability, T/C: 0.25%
Second compound 0.000949 µM, first compound 10 µM
  viability, T/C: 0.23%
Second compound 0.003 µM, first compound 0.0316 µM
  viability, T/C: 1.52%
Second compound 0.003 µM, first compound 0.1 µM
  viability, T/C: 1.22%
Second compound 0.003 µM, first compound 0.316 µM
  viability, T/C: 1.66%
Second compound 0.003 µM, first compound 1 µM
  viability, T/C: 1.39%
Second compound 0.003 µM, first compound 3.16 µM
  viability, T/C: 1.43%
Second compound 0.003 µM, first compound 10 µM
  viability, T/C: 1.5%
